Like-named read-outs stand apart in the source and are kept apart here.

One experiment has as its system HT1080. Kind of experiment: MTS proliferation assay, HT1080. Type of experiment: cell-based, human. Particulars: HT1080, 72 h incubation, read-out: MTS proliferation assay IC 50 HT1080. The essentials:
(§1)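 A 72 h exposure to compound (final 0.3–10 μM, four levels) was followed by 3 h MTS incubation and an A492 read.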
(Tetrazolium dyes change colour on reduction, which living cells bring about.)

In another experiment the test system is Jily. Kind of experiment: MTS proliferation assay, Jily. The following applies: 72 h incubation, read-out: MTS proliferation assay IC 50 Jily. It counts as cell-based. The essentials: (§2)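 Proliferation is followed by MTS conversion, measured as absorbance at 492 nm. Cells are exposed for 72 h to four fixed compound concentrations (10 μM down to 0.3 μM) under 37° C, 7.5% CO2 culture conditions.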

The next experiment concerns MRC5. Kind of experiment: MTS proliferation assay, MRC5. Particulars: MRC5, 72 h incubation, read-out: MTS proliferation assay IC 50 MRC5. It counts as cell-based. The essentials: as §2
Experiment [1] deals with adherent cells or suspension cells. As to the kind of experiment: Hoechst 33342 nuclear staining (fraction of apoptotic nuclei). Set-up: key: 0 relating to no activity; 1 relating to weak activity comprising less than 70% of the cells; score 2 relating to strong activity comprising more than 70% of the cells. It counts as cell-based.
Another experiment relates to HeLa. As to the kind of experiment: MTS proliferation assay, HeLa. Type of experiment: cell-based, human. The following applies: 72 h incubation, read-out: MTS proliferation assay IC 50 HeLa. The essentials: as §1
The next experiment has as its system Jurkat. As to the kind of experiment: MTS proliferation assay, Jurkat. It counts as cell-based, human. Particulars: 72 h incubation, read-out: MTS proliferation assay IC 50 Jurkat. The essentials:
as §1

Take `Nc1nonc1-c1nc2ccccc2n1COc1ccccc1` [Example 7, 4-(1-Phenoxymethyl-1H-benzimidazol-2-yl)-furazan-3-ylamine]: the IC50 was in the range of 100 to 1000 nM with HT1080 (Homo sapiens, HT-1080); 100 to 1000 nM with Jily; 100 to 1000 nM in the experiment on MRC5 (Homo sapiens); 100 to 1000 nM with HeLa (Homo sapiens); 100 to 1000 nM in the experiment with Jurkat (Homo sapiens). Moreover, the “Hoechst 33342 nuclear staining score” value in experiment [1] (H460, conc 0.01 μm) was 0; in experiment [1] (H460, conc 0.1 μm), 0; in experiment [1] (H460, conc 1 μm), 2 (score 2 relating to strong activity comprising more than 70% of the cells); in experiment [1] (HeLa, conc 0.01 μm) it was 0; in experiment [1] (HeLa, conc 0.1 μm) it was 0; in experiment [1] (HeLa, conc 1 μm), 2 (score 2 relating to strong activity comprising more than 70% of the cells). In addition, the “Hoechst 33342 nuclear staining score” value in experiment [1] (Jily, conc 0.01 μm) was 0; in experiment [1] (Jily, conc 0.1 μm), 0; in experiment [1] (Jily, conc 1 μm) it was 2 (score 2 relating to strong activity comprising more than 70% of the cells); in experiment [1] (Jurkat, conc 0.01 μm) it was 0; in experiment [1] (Jurkat, conc 0.1 μm), 0; in experiment [1] (Jurkat, conc 1 μm), 2 (score 2 relating to strong activity comprising more than 70% of the cells). The “Hoechst 33342 nuclear staining score” value in experiment [1] (MRC5, conc 0.01 μm) is listed as 0; in experiment [1] (MRC5, conc 0.1 μm), 0; in experiment [1] (MRC5, conc 1 μm), 0; in experiment [1] (PBLs, conc 0.01 μm), 0; in experiment [1] (PBLs, conc 0.1 μm) it was 0; in experiment [1] (PBLs, conc 1 μm), 0.
On to `Nc1nonc1-c1nc2ccccc2n1CC(=O)c1cccc(Cl)c1` [Example 35], for which the IC50 in the experiment with HT1080 fell in the range of 100 to 1000 nM; in the experiment with Jily, 10 to 100 nM; in the experiment on MRC5, 100 to 1000 nM; in the experiment on HeLa, 10 to 100 nM; with Jurkat, 10 to 100 nM. Further, the “Hoechst 33342 nuclear staining score” value in experiment [1] (H460, conc 0.01 μm) is 0; in experiment [1] (H460, conc 0.1 μm), 0; in experiment [1] (H460, conc 1 μm), 2 (score 2 relating to strong activity comprising more than 70% of the cells); in experiment [1] (HeLa, conc 0.01 μm) it was 0; in experiment [1] (HeLa, conc 0.1 μm), 0; in experiment [1] (HeLa, conc 1 μm), 2 (score 2 relating to strong activity comprising more than 70% of the cells). For the same molecule, the “Hoechst 33342 nuclear staining score” value in experiment [1] (Jily, conc 0.01 μm) is given as 0; in experiment [1] (Jily, conc 0.1 μm) it was 1 (1 relating to weak activity comprising less than 70% of the cells); in experiment [1] (Jily, conc 1 μm), 2 (score 2 relating to strong activity comprising more than 70% of the cells); in experiment [1] (Jurkat, conc 0.01 μm) it was 0; in experiment [1] (Jurkat, conc 0.1 μm), 2 (score 2 relating to strong activity comprising more than 70% of the cells); in experiment [1] (Jurkat, conc 1 μm), 2 (score 2 relating to strong activity comprising more than 70% of the cells). For the same molecule, the “Hoechst 33342 nuclear staining score” value in experiment [1] (MRC5, conc 0.01 μm) is given as 0; in experiment [1] (MRC5, conc 0.1 μm) it was 2 (score 2 relating to strong activity comprising more than 70% of the cells); in experiment [1] (MRC5, conc 1 μm), 2 (score 2 relating to strong activity comprising more than 70% of the cells); in experiment [1] (PBLs, conc 0.01 μm) it was 0; in experiment [1] (PBLs, conc 0.1 μm) it was 0; in experiment [1] (PBLs, conc 1 μm), 0.
As for `Nc1nonc1-c1nc2ccccc2n1CC(=O)c1cccs1` [Example 72], the IC50 in the experiment with HT1080, in the experiment on Jily, in the experiment with MRC5, with HeLa and in the experiment on Jurkat was 100 to 1000 nM each time. Further, the “Hoechst 33342 nuclear staining score” value in experiment [1] (H460, conc 0.01 μm) was 0; in experiment [1] (H460, conc 0.1 μm), 0; in experiment [1] (H460, conc 1 μm) it was 2 (score 2 relating to strong activity comprising more than 70% of the cells); in experiment [1] (HeLa, conc 0.01 μm), 0; in experiment [1] (HeLa, conc 0.1 μm), 0; in experiment [1] (HeLa, conc 1 μm) it was 2 (score 2 relating to strong activity comprising more than 70% of the cells). Moreover, the “Hoechst 33342 nuclear staining score” value in experiment [1] (Jily, conc 0.01 μm) is listed as 0; in experiment [1] (Jily, conc 0.1 μm), 0; in experiment [1] (Jily, conc 1 μm), 2 (score 2 relating to strong activity comprising more than 70% of the cells); in experiment [1] (Jurkat, conc 0.01 μm) it was 0; in experiment [1] (Jurkat, conc 0.1 μm), 1 (1 relating to weak activity comprising less than 70% of the cells); in experiment [1] (Jurkat, conc 1 μm), 2 (score 2 relating to strong activity comprising more than 70% of the cells). For the same molecule, the “Hoechst 33342 nuclear staining score” value in experiment [1] (MRC5, conc 0.01 μm) stood at 0; in experiment [1] (MRC5, conc 0.1 μm), 0; in experiment [1] (MRC5, conc 1 μm), 0; in experiment [1] (PBLs, conc 0.01 μm) it was 0; in experiment [1] (PBLs, conc 0.1 μm) it was 0; in experiment [1] (PBLs, conc 1 μm) it was 0.
In the case of `Nc1nonc1-c1nc2ccccc2n1CC(=O)c1ccc([N+](=O)[O-])cc1` [Example 49], the IC50 was > 1000 nM in the experiment on HT1080; 100 to 1000 nM in the experiment on Jily; > 1000 nM with MRC5; > 1000 nM in the experiment on HeLa; 100 to 1000 nM in the experiment on Jurkat. Further, the “Hoechst 33342 nuclear staining score” value in experiment [1] (H460, conc 0.01 μm) is 0; in experiment [1] (H460, conc 0.1 μm) it was 0; in experiment [1] (H460, conc 1 μm), 0; in experiment [1] (HeLa, conc 0.01 μm), 0; in experiment [1] (HeLa, conc 0.1 μm) it was 0; in experiment [1] (HeLa, conc 1 μm), 1 (1 relating to weak activity comprising less than 70% of the cells). Also, the “Hoechst 33342 nuclear staining score” value in experiment [1] (Jily, conc 0.01 μm) is given as 0; in experiment [1] (Jily, conc 0.1 μm), 0; in experiment [1] (Jily, conc 1 μm) it was 1 (1 relating to weak activity comprising less than 70% of the cells); in experiment [1] (Jurkat, conc 0.01 μm) it was 0; in experiment [1] (Jurkat, conc 0.1 μm), 0; in experiment [1] (Jurkat, conc 1 μm), 2 (score 2 relating to strong activity comprising more than 70% of the cells). For the same molecule, the “Hoechst 33342 nuclear staining score” value in experiment [1] (MRC5, conc 0.01 μm) was 0; in experiment [1] (MRC5, conc 0.1 μm), 0; in experiment [1] (MRC5, conc 1 μm), 0; in experiment [1] (PBLs, conc 0.01 μm), 0; in experiment [1] (PBLs, conc 0.1 μm), 0; in experiment [1] (PBLs, conc 1 μm), 0.
In the case of `Nc1nonc1-c1nc2ccccc2n1CC1CC1` [B, reference compound], the IC50 with HT1080, in the experiment with Jily, in the experiment with MRC5, in the experiment with HeLa and in the experiment on Jurkat was > 1000 nM each time. Besides, the “Hoechst 33342 nuclear staining score” value in experiment [1] (H460, conc 3 μm) is 0; in experiment [1] (H460, conc 10 μm) it was 0; in experiment [1] (H460, conc 30 μm), 0; in experiment [1] (HeLa, conc 3 μm), 0; in experiment [1] (HeLa, conc 10 μm), 0; in experiment [1] (HeLa, conc 30 μm), 0. The “Hoechst 33342 nuclear staining score” value turned out to be 0 in experiment [1] (Jily, conc 3 μm); 0 in experiment [1] (Jily, conc 10 μm); 0 in experiment [1] (Jily, conc 30 μm); 0 in experiment [1] (Jurkat, conc 3 μm); 0 in experiment [1] (Jurkat, conc 10 μm); 0 in experiment [1] (Jurkat, conc 30 μm). Further, the “Hoechst 33342 nuclear staining score” value in experiment [1] (MRC5, conc 3 μm) is on record as 0; in experiment [1] (MRC5, conc 10 μm), 0; in experiment [1] (MRC5, conc 30 μm), 0; in experiment [1] (PBLs, conc 3 μm), 0; in experiment [1] (PBLs, conc 10 μm) it was 0; in experiment [1] (PBLs, conc 30 μm), 0.

Values taken from patent publication USRE42890E1, “Furazanobenzimidazoles” (Basilea Pharmaceutica AG, priority 2003, dated 2011).
